In patent publication US7919508B2, “3-piperidinylisochroman-5-ols as dopamine agonists” (Aventis Pharmaceuticals Inc., priority 2004, dated 2011):
Where a name gives a salt, the structure may show the parent alone.

Tests used:
[1] = molecular target: T1, human dopamine D1 receptor (Homo sapiens, UniProt P21728); assay: [3H]-SCH-23390 binding to cloned human dopamine D1 receptors (CHO cell membranes); details: competitive binding, [3H]-SCH-23390, cloned human D1 in CHO membranes; read-out: D1 affinity Ki
T1 construct: A 1.4 Kb Hind III to Xho I fragment was subcloned into the vector pMMLV; expressed in transfected cells; host or cells: CHO cells, clone CHO-D1M#9 (plasmid pHD1MMLV), membranes

D1 receptor = molecular target: T2, D1 receptor (Homo sapiens, UniProt P21728); assay: D1 Activation Adenylyl Cyclase Assay (cAMP FlashPlate, D1 transfected CHO cell line); format: cell-based; details: agonist activity at the D1 receptor, adenylate cyclase assay, D1 transfected CHO cell line; read-out: D1 EC50
T2 construct: expressed in transfected cells; host or cells: D1 transfected CHO cell line
How it was run: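 D1-transfected CHO cells (50,000/well) were exposed to compound 1/10 serial dilutions for 8 min at RT; cAMP measured by competitive 125I-cAMP FlashPlate against a standard curve. Response normalised between basal and saturating D1 agonist; EC50 at half-maximal stimulation, plateau reported as % maximal dopamine stimulation.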

[2] = molecular target: human dopamine D2Long (D2L) receptors (Homo sapiens, UniProt P14416)
human dopamine D2Long (D2L) receptors, sequence (P14416 whole entry): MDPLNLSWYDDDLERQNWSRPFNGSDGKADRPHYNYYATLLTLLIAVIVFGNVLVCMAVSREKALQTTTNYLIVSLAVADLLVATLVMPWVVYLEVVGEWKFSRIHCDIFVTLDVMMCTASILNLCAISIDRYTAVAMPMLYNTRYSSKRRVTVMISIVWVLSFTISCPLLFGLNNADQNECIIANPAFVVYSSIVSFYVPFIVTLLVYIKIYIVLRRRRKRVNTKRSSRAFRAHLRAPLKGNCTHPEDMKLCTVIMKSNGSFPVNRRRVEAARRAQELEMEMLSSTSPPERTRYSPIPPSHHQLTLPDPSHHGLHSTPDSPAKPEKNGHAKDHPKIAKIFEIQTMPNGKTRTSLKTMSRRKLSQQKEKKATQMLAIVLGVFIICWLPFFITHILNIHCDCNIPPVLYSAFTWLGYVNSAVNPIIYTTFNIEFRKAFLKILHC

T2 sequence (P21728 whole entry): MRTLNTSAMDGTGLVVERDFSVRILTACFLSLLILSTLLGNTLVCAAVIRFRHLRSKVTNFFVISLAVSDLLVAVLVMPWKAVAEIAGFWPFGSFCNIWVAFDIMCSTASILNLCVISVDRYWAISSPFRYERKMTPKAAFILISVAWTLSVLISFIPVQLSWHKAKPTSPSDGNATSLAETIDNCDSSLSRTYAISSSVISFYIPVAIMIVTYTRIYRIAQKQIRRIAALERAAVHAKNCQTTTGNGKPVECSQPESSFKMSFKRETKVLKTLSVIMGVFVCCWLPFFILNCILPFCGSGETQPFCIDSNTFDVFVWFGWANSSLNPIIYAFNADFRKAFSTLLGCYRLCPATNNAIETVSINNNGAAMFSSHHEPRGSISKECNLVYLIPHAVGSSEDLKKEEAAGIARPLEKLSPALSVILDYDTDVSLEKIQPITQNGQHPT
T1 sequence (P21728 whole entry, the tested form may be a part): as the sequence (P21728 whole entry) above

Row | SMILES | Ki [1] | EC50 (D1 receptor) | Ki [2]
1 | Cc1ccc2c(c1O)C[C@@H](C1CCN(CCNC(=O)c3ccccc3)CC1)O[C@H]2CN [Example 191, N-{2-[4-((1R,3S)-1-Aminomethyl-5-hydroxy-6-methylisochroman-3-yl)-piperidin-1-yl]-ethyl}benzamide dihydrobromide] | 0.276 µM | 0.18 µM | 0.415 µM
2 | Cc1ccc2c(c1O)C[C@@H](C1CCN(CCNC(=O)Nc3ccc(F)cc3)CC1)O[C@H]2CN [Example 192, (1R,3S)-1-{2-[4-(1-Aminomethyl-5-hydroxy-6-methyl-isochroman-3-yl)-piperidin-1-yl]ethyl}-3-(4-fluoro-phenyl)urea dihydrobromide] | 0.077 µM | 0.011 µM | 0.477 µM
3 | Cc1ccc2c(c1O)C[C@@H](C1CCN(CCNC(=O)Nc3ccccc3)CC1)O[C@H]2CN [Example 193, 1-{2-[4-((1R,3S)-1-Aminomethyl-5-hydroxy-6-methyl-isochroman-3-yl)piperidin-1-yl]-ethyl}-3-phenylurea dihydrobromide] | 0.05 µM | 0.043 µM | 0.284 µM
4 | CCC(CN1CCC([C@@H]2Cc3c(ccc(C)c3O)[C@H](CNC)O2)CC1)c1ccccc1 (stereo partly drawn) [Example 194, (1R,3S)-6-Methyl-1-methylaminomethyl-3-[1-(2-phenylbutyl)-piperidin-4-yl]isochroman-5-ol dihydrochloride] | 0.054 µM | 0.034 µM | 0.639 µM

Further compounds by falling Ki [1], results first:

Row | Ki [1] | EC50 (D1 receptor) | Ki [2] | SMILES
5 | 0.312 µM | 0.27 µM | 0.061 µM | Cc1ccc2c(c1O)C[C@@H](C1CCN(CCNC(=O)c3ccc(F)cc3)CC1)O[C@H]2CN [Example 189, N-{2-[4-((1R,3S)-1-Aminomethyl-5-hydroxy-6-methylisochroman-3-yl)-piperidin-1-yl]ethyl}-4-fluorobenzamide dihydrobromide]
6 | 0.139 µM | 0.81 µM | 0.215 µM | CCNC[C@@H]1O[C@H](C2CCN(CC(=O)c3ccccc3)CC2)Cc2c1ccc(C)c2O [Example 179, 2-[4-((1R,3S)-1-Ethylaminomethyl-5-hydroxy-6-methyl-isochroman-3-yl)-piperidin-1-yl]-1-phenyl-ethanone]
7 | 0.0952 µM | 0.011 µM | ≥ 100 µM | Cc1ccc2c(c1O)C[C@@H](C1CCN(S(=O)(=O)Cc3ccccc3[N+](=O)[O-])CC1)O[C@H]2CN [Example 158, (1R,3S)-1-Aminomethyl-6-methyl-3-[1-(2-nitro-phenylmethanesulfonyl)-piperidin-4-yl]-isochroman-5-ol hydrochloride]
8 | 0.074 µM | 0.077 µM | 0.528 µM | Cc1ccc2c(c1O)C[C@@H](C1CCN(S(=O)(=O)N3CCc4ccccc4C3)CC1)O[C@H]2CN [Example 167, (1R,3S)-1-Aminomethyl-3-[1-(3,4-dihydro-1H-isoquinoline-2-sulfonyl)-piperidin-yl]-6-methyl-isochroman-5-ol hydrochloride]
9 | 0.0645 µM | 0.035 µM | ≥ 100 µM | Cc1ccc2c(c1O)C[C@@H](C1CCN(S(=O)(=O)CCc3cccc4ccccc34)CC1)O[C@H]2CN [Example 159, (1R,3S)-1-Aminomethyl-6-methyl-3-[1-(2-naphthalen-1-yl-ethanesulfonyl)-piperidin-4-yl]-isochroman-5-ol hydrochloride]
